Measurements published in US20130303509A1, “NAMPT INHIBITORS” (AbbVie Inc., priority 2012, published 2013).

What follows are compounds tested on PC3 cells (assay: NAMPT Cell Proliferation Assay). Settings: Homo sapiens, PC-3, 120 h, 5 days incubation, cell viability by Cell Titer Glo.
Assay type: cell-based
In short: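 Five-day CellTiter-Glo viability readout in PC3 cells grown in RPMI/10% heat-inactivated FBS. Compounds added after overnight attachment as a 10-fold dilution series, […]. Percent inhibition fitted to sigmoidal dose-response to derive IC50.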

IC50	Compound
6.38 nM	O=C(Nc1ccc(C2CCN(C(=O)Cc3cccc(F)c3)CC2)cc1)C1CN(c2cccnn2)C1 [Example 367, N-(4-{1-[(3-fluorophenyl)acetyl]piperidin-4-yl}phenyl)-1-(pyridazin-3-yl)azetidine-3-carboxamide]
701 nM	COCC(=O)N1CCC(c2ccc(NC(=O)C3CN(c4cccnc4C)C3)cc2)CC1 [Example 195, N-{4-[1-(methoxyacetyl)piperidin-4-yl]phenyl}-1-(2-methylpyridin-3-yl)azetidine-3-carboxamide]
0.23 nM	O=C(Nc1ccc(C2CCN(C(=O)C3CCCCC3)CC2)cc1)C1CN(c2cccnc2)C1 [Example 136, N-{4-[1-(cyclohexylcarbonyl)piperidin-4-yl]phenyl}-1-(pyridin-3-yl)azetidine-3-carboxamide]
2.13 nM	Cc1ccc(C(=O)N2CCC(c3ccc(NC(=O)C4CN(c5cccnn5)C4)cc3)CC2)s1 [Example 377, N-(4-{1-[(5-methylthiophen-2-yl)carbonyl]piperidin-4-yl}phenyl)-1-(pyridazin-3-yl)azetidine-3-carboxamide]
3.91 nM	O=C(Nc1ccc(C2CCN(C(=O)Cc3ccccc3F)CC2)cc1)C1CN(c2ccnnc2)C1 [Example 540, N-(4-{1-[(2-fluorophenyl)acetyl]piperidin-4-yl}phenyl)-1-(pyridazin-4-yl)azetidine-3-carboxamide]
0.67 nM	O=C(Nc1ccc(C2CCN(C(=O)c3ccco3)CC2)cc1)C1CN(c2cccnn2)C1 [Example 436, N-{4-[1-(furan-2-ylcarbonyl)piperidin-4-yl]phenyl}-1-(pyridazin-3-yl)azetidine-3-carboxamide]
5.68 nM	COCC(=O)N1CCC(c2ccc(NC(=O)C3CN(c4cccnn4)C3)cc2)CC1 [Example 333, N-{4-[1-(methoxyacetyl)piperidin-4-yl]phenyl}-1-(pyridazin-3-yl)azetidine-3-carboxamide]
20.5 nM	CC(C)(O)C(=O)N1CCC(c2ccc(NC(=O)C3CN(c4ccnnc4)C3)cc2)CC1 [Example 85, N-{4-[1-(2-hydroxy-2-methylpropanoyl)piperidin-4-yl]phenyl}-1-(pyridazin-4-yl)azetidine-3-carboxamide]
5.72 nM	CCC(C)CC(=O)N1CCC(c2ccc(NC(=O)C3CN(c4cccnc4)C3)cc2)CC1 (stereo not shown) [Example 99, N-{4-[1-(3-methylpentanoyl)piperidin-4-yl]phenyl}-1-(pyridin-3-yl)azetidine-3-carboxamide]
75.4 nM	CC(C)(C)C(=O)N1CCC(c2ccc(NC(=O)C3CN(c4ccc(F)nn4)C3)cc2)CC1 [Example 820, N-{4-[1-(2,2-dimethylpropanoyl)piperidin-4-yl]phenyl}-1-(6-fluoropyridazin-3-yl)azetidine-3-carboxamide]
3.3 nM	O=C(Nc1ccc(C2CCN(C(=O)c3cscn3)CC2)cc1)C1CN(c2ccnnc2)C1 [Example 537, 1-(pyridazin-4-yl)-N-{4-[1-(1,3-thiazol-4-ylcarbonyl)piperidin-4-yl]phenyl}azetidine-3-carboxamide]
1980 nM	COc1ncccc1N1CC(C(=O)Nc2ccc(C3CCN(C(=O)C(C)(C)O)CC3)cc2)C1 [Example 73, N-{4-[1-(2-hydroxy-2-methylpropanoyl)piperidin-4-yl]phenyl}-1-(2-methoxypyridin-3-yl)azetidine-3-carboxamide]
0.97 nM	CSCC(=O)N1CCC(c2ccc(NC(=O)C3CN(c4cccnn4)C3)cc2)CC1 [Example 334, N-(4-{1-[(methylsulfanyl)acetyl]piperidin-4-yl}phenyl)-1-(pyridazin-3-yl)azetidine-3-carboxamide]
7.84 nM	O=C(Nc1ccc(C2CCN(C(=O)c3cc(Cl)cc(Cl)c3)CC2)cc1)C1CN(c2cccnn2)C1 [Example 365, N-{4-[1-(3,5-dichlorobenzoyl)piperidin-4-yl]phenyl}-1-(pyridazin-3-yl)azetidine-3-carboxamide]
58 nM	Cc1ncccc1N1CC(C(=O)Nc2ccc(C3CCN(C(=O)c4ccccc4)CC3)cc2)C1 [Example 149, N-[4-(1-benzoylpiperidin-4-yl)phenyl]-1-(2-methylpyridin-3-yl)azetidine-3-carboxamide]
2.36 nM	O=C(Nc1ccc(C2CCN(C(=O)c3cccc(Cl)c3)CC2)cc1)C1CN(c2cccnn2)C1 [Example 351, N-{4-[1-(3-chlorobenzoyl)piperidin-4-yl]phenyl}-1-(pyridazin-3-yl)azetidine-3-carboxamide]

More lines, now with the values behind:

Compound	IC50
O=C(Nc1ccc(O[C@@H]2CCN(C(=O)c3ccc(Cl)cc3)C2)cc1)C1CN(c2ccnnc2)C1 [Example 465, N-(4-{[(3R)-1-(4-chlorobenzoyl)pyrrolidin-3-yl]oxy}phenyl)-1-(pyridazin-4-yl)azetidine-3-carboxamide]	616 nM
O=C(Nc1ccc(C2CCN(C(=O)c3cc(C(F)(F)F)ccc3F)CC2)cc1)C1CN(c2cccnn2)C1 [Example 394, N-(4-{1-[2-fluoro-5-(trifluoromethyl)benzoyl]piperidin-4-yl}phenyl)-1-(pyridazin-3-yl)azetidine-3-carboxamide]	1.99 nM
O=C(Nc1ccc(S(=O)(=O)C2CCN(C(=O)C3(c4ccccc4)CC3)CC2)cc1)C1CN(c2cccnn2)C1 [Example 601, N-[4-({1-[(1-phenylcyclopropyl)carbonyl]piperidin-4-yl}sulfonyl)phenyl]-1-(pyridazin-3-yl)azetidine-3-carboxamide]	96.8 nM
O=C(Nc1ccc(C2CCN(C(=O)Cc3cccc(F)c3)CC2)cc1)[C@H]1CCN(c2cccnn2)C1 [Example 714, (3S)-N-(4-{1-[(3-fluorophenyl)acetyl]piperidin-4-yl}phenyl)-1-(pyridazin-3-yl)pyrrolidine-3-carboxamide]	17.6 nM
O=C(Nc1ccc(O[C@@H]2CCN(C(=O)c3ccc(F)c(F)c3)C2)cc1)C1CN(c2ccnnc2)C1 [Example 451, N-(4-{[(3R)-1-(3,4-difluorobenzoyl)pyrrolidin-3-yl]oxy}phenyl)-1-(pyridazin-4-yl)azetidine-3-carboxamide]	86.8 nM
O=C(Nc1ccc(OC2CCN(C(=O)Cc3cccc(C(F)(F)F)c3)CC2)cc1)C1CN(c2ccnnc2)C1 [Example 305, 1-(pyridazin-4-yl)-N-{4-[(1-{[3-(trifluoromethyl)phenyl]acetyl}piperidin-4-yl)oxy]phenyl}azetidine-3-carboxamide]	102 nM
Cc1ncccc1N1CC(C(=O)Nc2ccc(C3CCN(C(=O)CC4C[C@@H]5CC[C@H]4C5)CC3)cc2)C1 (stereo partly drawn) [Example 161, N-(4-{1-[(1S,4R)-bicyclo[2.2.1]hept-2-ylacetyl]piperidin-4-yl}phenyl)-1-(2-methylpyridin-3-yl)azetidine-3-carboxamide]	213 nM
O=C(Nc1ccc(O[C@@H]2CCN(C(=O)c3ccc(OC(F)(F)F)cc3)C2)cc1)C1CN(c2cccnn2)C1 [Example 519, 1-(pyridazin-3-yl)-N-[4-({(3R)-1-[4-(trifluoromethoxy)benzoyl]pyrrolidin-3-yl}oxy)phenyl]azetidine-3-carboxamide]	3.21 nM
O=C(Nc1ccc(O[C@@H]2CCN(C(=O)c3ccc(C(F)(F)F)cc3)C2)cc1)C1CN(c2cccnn2)C1 [Example 517, 1-(pyridazin-3-yl)-N-[4-({(3R)-1-[4-(trifluoromethyl)benzoyl]pyrrolidin-3-yl}oxy)phenyl]azetidine-3-carboxamide]	9.21 nM
COCCOCC(=O)N1CCC(c2ccc(NC(=O)[C@H]3CCN(c4cccnn4)C3)cc2)CC1 [Example 722, (3S)-N-(4-{1-[(2-methoxyethoxy)acetyl]piperidin-4-yl}phenyl)-1-(pyridazin-3-yl)pyrrolidine-3-carboxamide]	84.8 nM
O=C(Nc1ccc(C2CCN(C(=O)CCC(F)(F)F)CC2)cc1F)C1CN(c2ccnnc2)C1 [Example 872, N-{2-fluoro-4-[1-(4,4,4-trifluorobutanoyl)piperidin-4-yl]phenyl}-1-(pyridazin-4-yl)azetidine-3-carboxamide]	23.6 nM
O=C(Nc1ccc(OC2CCN(CC3CC3)CC2)cc1)C1CN(c2cccnc2)C1 [Example 74, N-(4-{[1-(cyclopropylmethyl)piperidin-4-yl]oxy}phenyl)-1-(pyridin-3-yl)azetidine-3-carboxamide]	11.4 nM
CC[C@H](C)C(=O)N1CCC(Oc2ccc(NC(=O)C3CN(c4cccnc4)C3)cc2)CC1 [Example 32, N-[4-({1-[(2S)-2-methylbutanoyl]piperidin-4-yl}oxy)phenyl]-1-(pyridin-3-yl)azetidine-3-carboxamide]	6.54 nM
O=C(Nc1ccc(O[C@@H]2CCN(C(=O)Cc3ccccc3F)C2)cc1)C1CN(c2cccnn2)C1 [Example 501, N-[4-({(3R)-1-[(2-fluorophenyl)acetyl]pyrrolidin-3-yl}oxy)phenyl]-1-(pyridazin-3-yl)azetidine-3-carboxamide]	6.07 nM
O=C(Nc1ccc(C2CN(C(=O)c3cccc(F)c3)C2)cc1)[C@H]1CCN(c2cccnn2)C1 [Example 786, (3S)-N-{4-[1-(3-fluorobenzoyl)azetidin-3-yl]phenyl}-1-(pyridazin-3-yl)pyrrolidine-3-carboxamide]	12 nM
Cc1ccc(N2CC[C@H](C(=O)Nc3ccc(OC4CCN(C(=O)c5ccccc5F)CC4)cc3)C2)nn1 [Example 836, (3S)—N-(4-{[1-(2-fluorobenzoyl)piperidin-4-yl]oxy}phenyl)-1-(6-methylpyridazin-3-yl)pyrrolidine-3-carboxamide]	658 nM
O=C(Nc1ccc(O[C@@H]2CCN(C(=O)c3cc(F)cc(F)c3)C2)cc1)C1CN(c2cccnn2)C1 [Example 516, N-(4-{[(3R)-1-(3,5-difluorobenzoyl)pyrrolidin-3-yl]oxy}phenyl)-1-(pyridazin-3-yl)azetidine-3-carboxamide]	2.26 nM
CC(C)Cn1cc(-c2ccc(C(=O)N[C@H]3CCN(c4ccc(Cl)nn4)C3)s2)cn1 [Example 621, N-[(3S)-1-(6-chloropyridazin-3-yl)pyrrolidin-3-yl]-5-[1-(2-methylpropyl)-1H-pyrazol-4-yl]thiophene-2-carboxamide]	> 10000 nM
